In data set [1] the target is T1, T7 RNA polymerase (Escherichia phage T7, UniProt P00573). As to conditions: compared to transcription using the natural template and substrates only; 1 mM modified yTP, 37° C., 3 hours. Here is the method: More specifically, double-stranded template DNA (10 μM) was annealed in 10 mM Tris-HCl buffer (pH 7.6) containing 10 mM NaCl under the following conditions: 95° C. for 3 minutes→50° C. for 3 minutes→slow cooling to 4° C. T7 transcription reaction was accomplished in a reaction solution (20 μl) containing 40 mM Tris-HCl buffer (pH 8.0), 24 mM MgCl2, 2 mM spermidine, 5 mM DTT, 0.01% Triton X-100, 2 μCi [y-^32P]GTP, 1 mM NTPs, 1 mM modified yTP, 2 μM template DNA, and 50 units of T7 RNA polymerase (Takara).
The template DNA used was a duplex formed between T7 promoter-containing 35-mer template strand and T7 promoter non-template strand 21-mer, which has been modified to have s or v introduced at a single position within the template.
where N(5)=v (the present invention), s (the present invention) or A (control)
where N′(13)=NH2-y, FAM-y or TAMRA-y
The modified substrate was added in the same amount as the natural substrates and reacted at 37° C. for 3 hours, followed by addition of an electrophoresis dye solution (20 μl) containing 10 M urea to stop the reaction. The reaction solution was heated at 75° C. for 3 minutes and then electrophoresed on a 20% polyacrylamide-7 M urea gel. The transcripts were analyzed with a bio-imaging analyzer.

The conditions of data set [2]: for Quantum yield: pH 7.0 aqueous solution, standard fluorescein in 0.1 N NaOH, φs=0.90; for Emission maxima: excited at the wavelength printed in the cell (493, 553 or 320 nm), pH 7.0, 25° C. How it is done: A 3×3 mm cell was used for measurement, and the following settings were used to measure each spectrum: response 1.0 s, sensitivity low, and slit width fixed at 3 nm for both excitation and fluorescence sides.
The quantum yield (φ) was calculated according to the following equation and fluorescein (1.0 μM in 0.1 N NaOH, φs=0.90) was used as a standard. φ=(F·As·η^2·φs)/(A·Fs·η0^2)
F: Area of each fluorescence spectrum
A: Absorbance at the excitation wavelength
η: Refractive index (water: 1.33)

Data set [3] concerns the target T1, T7 RNA polymerase. As to conditions: RNA 17-mer transcript, RNase T2 digest, [α-32P]ATP.
Procedure: The same T7 RNA polymerase-mediated transcription reaction as shown in Example 11 was performed in a reaction solution containing 40 mM Tris-HCl buffer (pH 8.0), 24 mM MgCl2, 2 mM spermidine, 5 mM DTT, 0.01% Triton X-100, 2 μCi [α-^32P]ATP, 1 mM NTPs, 1 mM modified-yTP, 2 μM template DNA, and 50 units of T7 RNA polymerase (Takara). After electrophoresis on a 15% polyacrylamide-7 M urea gel, the transcript was eluted from the gel and collected by ethanol precipitation in the presence of tRNA (0.25 OD).
To this tRNA-containing solution (8.5 μl), RNase T2 (1.5 μl, 1 unit/μl) was added and reacted overnight at 37° C. 0.3 μl of this solution was spotted on a TLC plate (Merck, 10 cm×10 cm) and developed two-dimensionally. As a developing solution, isobutyric acid:concentrated aqueous ammonia:water=66:1:33 (v/v/v) was used for the first dimension and 2-propanol:hydrochloric acid:water=65:10:25 (v/v/v) was used for the second dimension. The developed spots were detected and analyzed with a bio-imaging analyzer.
The mark [4] stands for this setting: 1.0 μM in 10 mM sodium phosphate buffer (pH 7.0), 25° C.

5 compounds from patent US7960543B2, “Nucleoside or nucleotide derivative and use thereof” (RIKEN, priority 2004, dated 2011) can be followed below.

Several values for one entry are separate records, joined by “and”; a condition that tells them apart may be missing. Equal entries are not always repeated. Where two headings read alike, the source gives them in different places.

T1 sequence (P00573 whole entry): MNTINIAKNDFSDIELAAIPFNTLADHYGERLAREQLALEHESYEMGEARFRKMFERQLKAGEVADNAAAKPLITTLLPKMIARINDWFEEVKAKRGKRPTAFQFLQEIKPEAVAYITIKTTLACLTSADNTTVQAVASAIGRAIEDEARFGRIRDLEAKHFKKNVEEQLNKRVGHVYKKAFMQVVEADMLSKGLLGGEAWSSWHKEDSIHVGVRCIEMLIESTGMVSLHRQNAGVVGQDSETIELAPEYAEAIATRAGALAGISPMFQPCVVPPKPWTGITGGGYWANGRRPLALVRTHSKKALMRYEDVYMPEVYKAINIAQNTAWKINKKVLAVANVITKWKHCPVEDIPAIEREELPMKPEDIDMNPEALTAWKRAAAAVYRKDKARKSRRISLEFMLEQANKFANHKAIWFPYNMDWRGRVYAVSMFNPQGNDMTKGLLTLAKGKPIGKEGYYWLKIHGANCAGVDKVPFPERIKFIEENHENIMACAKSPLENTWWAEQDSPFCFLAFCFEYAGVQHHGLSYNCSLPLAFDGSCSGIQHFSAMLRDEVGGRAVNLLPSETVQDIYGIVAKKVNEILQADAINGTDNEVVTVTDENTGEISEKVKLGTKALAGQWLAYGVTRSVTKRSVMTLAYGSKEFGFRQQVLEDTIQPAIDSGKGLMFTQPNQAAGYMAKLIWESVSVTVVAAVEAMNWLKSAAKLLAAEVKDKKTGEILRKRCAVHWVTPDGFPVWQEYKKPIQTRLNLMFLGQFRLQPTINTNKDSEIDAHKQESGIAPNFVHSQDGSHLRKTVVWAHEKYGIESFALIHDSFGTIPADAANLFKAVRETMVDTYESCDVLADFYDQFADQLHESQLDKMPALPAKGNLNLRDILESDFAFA

On to `O=C(CCCCCNC(=O)c1ccc2c(c1)C(=O)OC21c2ccc(O)cc2Oc2cc(O)ccc21)NCC#Cc1c[nH]c(=O)c([C@@H]2O[C@H](COP(=O)(O)OP(=O)(O)OP(=O)(O)O)[C@@H](O)[C@H]2O)c1` [FAM-yTP, 3-(β-D-ribofuranosyl)-5-[3-[6-(fluorescein-5-carboxamido)hexanamido]-1-propynyl]-2-oxo(1H)pyridine 5′-triphosphate], for which the “yield of RNA incorporating the modified substrate” value at T7 RNA polymerase [1] is given as 76%. Besides, in data set [2] (setting [4]), the Absorption maxima amounted to 493 nm and the “ε at absorption maximum” value is reported as 62,000. Moreover, the Quantum yield in data set [2] amounted to 0.55.

With `O=C(NCC#Cc1c[nH]c(=O)c([C@@H]2O[C@H](COP(=O)(O)OP(=O)(O)OP(=O)(O)O)[C@@H](O)[C@H]2O)c1)c1ccc2c(c1)C(=O)OC21c2ccc(O)cc2Oc2cc(O)ccc21` [short FAM-yTP, 3-(β-D-ribofuranosyl)-5-[3-(fluorescein-5-carboxamido)-1-propynyl]-2-oxo(1H)pyridine 5′-triphosphate], in data set [2] (setting [4]), the Absorption maxima was 493 nm and the “ε at absorption maximum” value is given as 70,000. In data set [2], the Emission maxima is reported as 521 (excited at 493 nm) and the Quantum yield stood at 0.67.

With `CN(C)c1cccc2c(S(=O)(=O)NCCCCCC(=O)NCCCCCC(=O)NCC#Cc3c[nH]c(=O)c([C@@H]4O[C@H](COP(=O)(O)OP(=O)(O)OP(=O)(O)O)[C@@H](O)[C@H]4O)c3)cccc12` [Dansyl-x-yTP, 3-(β-D-ribofuranosyl)-5-[3-[6-[6-[(5-dimethylaminonaphthalene-1-sulfonyl)amino]hexanamido]hexanamido]-1-propynyl]-2-oxo(1H)pyridine 5′-triphosphate], the Absorption maxima in data set [2] (setting [4]) is 319 nm and 252 nm. Further, in data set [2], the Emission maxima was 387 nm and 541 nm; the Quantum yield was determined as 0.014.

Turning to `NCCCCCC(=O)NCC#Cc1c[nH]c(=O)c([C@@H]2O[C@H](COP(=O)(O)OP(=O)(O)OP(=O)(O)O)[C@@H](O)[C@H]2O)c1` [NH2-yTP, 3-(β-D-ribofuranosyl)-5-[3-(6-aminohexanamido)-1-propynyl]-2-oxo(1H)pyridine 5′-triphosphate], the “yield of RNA incorporating the modified substrate” value at T7 RNA polymerase [1] is “same yield”. In addition, the “incorporation opposite v in the template” value at T7 RNA polymerase [3] was “specific incorporation”.

On to `CN(C)c1ccc2c(-c3cc(C(=O)NCCCCCC(=O)NCC#Cc4c[nH]c(=O)c([C@@H]5O[C@H](COP(=O)(O)OP(=O)(O)OP(=O)(O)O)[C@@H](O)[C@H]5O)c4)ccc3C(=O)[O-])c3ccc(N(C)C)cc3[o+]c2c1` [TAMRA-yTP, 3-(β-D-ribofuranosyl)-5-[3-[6-(tetramethylrhodamine-5-carboxamido)hexanamido]-1-propynyl]-2-oxo(1H)pyridine 5′-triphosphate], for which the “yield of RNA incorporating the modified substrate” value at T7 RNA polymerase [1] came out at 61%. Moreover, in data set [2] (pH 7), the Absorption maxima was 553 nm and 553 (ε 85,000) nm; the “ε at absorption maximum” value was 553 (ε 85,000). Also, the Quantum yield in data set [2] came out at 0.50.
